# System: PCSK9 secreted from HepG2 cells
# Assay: PCSK9 secretion assay in HepG2 cells (PCSK9 ELISA)
# Format: cell-based
# Conditions: 16 hours incubation
# Protocol: HepG2 cells (from ATCC, Catalog no. HB-8065) were maintained in DMEM (Invitrogen) supplemented with 10% fetal bovine serum (Invitrogen). The day prior to the PCSK9 assay, cells were seeded in 96-well collagen coated plates at 25,000 cells/well.
# The compounds of the invention were stored at −20° C. until used. The test article compound was dissolved in 100% ethanol to a 50 mM stock solution. This was then diluted in FBS to a final concentration of 1 mM. This solution was placed in a sonicating water bath for 30 minutes. Subsequent dilutions were then made in FBS supplemented with an equivalent volume of ethanol and mixed by vortexing.
# HepG2 cells were seeded onto a collagen coated 96-well plate (Becton Dickinson, Catalog no. 35-4407) the day prior to the assay, as described above. The next day, the cell medium was removed, washed once with […] serum free DMEM to remove any residual PCSK9, and replaced with […] of serum free DMEM. Ten microliters of each compound concentration prepared in FBS was then added. Each concentration of compound was tested in triplicate. The compound was incubated with the cells overnight for 16 hours. Following this incubation, 10 µL of AlamarBlue was added to each well and cells incubated for another 2 hours. The plates were then removed and AlamarBlue fluorescence was measured (excitation, 550 nm and […]) to assess cell viability. Cell culture supernatant was then diluted […] 1× RD5P Calibrator Diluent and PCSK9 ELISA was then performed with […] of this diluted sample, as per the manufacturer's instructions. The ELISA was measured on a Victor X5 multilabel plate reader (PerkinElmer) at an absorbance of 450 nm with background correction measured at 550 nm (The PCSK9 Elisa kits can be purchased from R&D System, Catalog no. DPC900).
# [1] = two tested concentrations (6.25 and 25 μM)
smiles,measurement,setting,value
"CC/C=C\C/C=C\C/C=C\C/C=C\C/C=C\C/C=C\CCC(=O)NCCNC(=O)C[C@H](O)C[C@H](O)CCn1c(-c2ccc(F)cc2)c(-c2ccccc2)c(C(=O)Nc2ccccc2)c1C(C)C [Compound I-22, 1-((3R,5R)-7-(2-(4Z,7Z,10Z,13Z,16Z,19Z)-docosa-4,7,10,13,16,19-hexaenamidoethylamino)-3,5-dihydroxy-7-oxoheptyl)-5-(4-fluorophenyl)-2-isopropyl-N,4-diphenyl-1H-pyrrole-3-carboxamide]",level of PCSK9 secreted from HepG2 cells,[1],no significant change
"CC/C=C\C/C=C\C/C=C\C/C=C\C/C=C\CCCC(=O)NCCNC(=O)C[C@H](O)C[C@H](O)/C=C/c1c(-c2ccc(F)cc2)nc(N(C)S(C)(=O)=O)nc1C(C)C [Compound 1-43, (5Z,8Z,11Z,14Z,17Z)—N-(2-((3R,5S,E)-7-(4-(4-fluorophenyl)-6-isopropyl-2-(N-methylmethylsulfonamido)pyrimidin-5-yl)-3,5-dihydroxyhept-6-enamido)ethyl)icosa-5,8,11,14,17-pentaenamide]",level of PCSK9 secreted from HepG2 cells,[1],did not cause an increase
"CC(C)c1nc(N(C)S(C)(=O)=O)nc(-c2ccc(F)cc2)c1/C=C/[C@@H](O)C[C@@H](O)CC(=O)O [rosuvastatin, reference compound]",level of PCSK9 secreted from HepG2 cells,[1],increase
"CC(C)c1c(C(=O)Nc2ccccc2)c(-c2ccccc2)c(-c2ccc(F)cc2)n1CC[C@@H](O)C[C@@H](O)CC(=O)O [atorvastatin, reference compound]",level of PCSK9 secretion from HepG2 cells,"1.25, 2.5, 5.0 and 10.0 μM, compared to the control, FIG. 1",significant increase
"CC/C=C\C/C=C\C/C=C\C/C=C\C/C=C\C/C=C\CCC(=O)NCCNC(=O)C[C@H](O)C[C@@H](O)CC[C@@H]1C2C(=C[C@H](C)CC2OC(=O)C(C)(C)CC)C=C[C@@H]1C (stereo partly drawn) [Compound I-1, (3R,7S,8S)-8-((3S,5R)-7-((2-((4Z,7Z,10Z,13Z,16Z,19Z)-docosa-4,7,10,13,16,19-hexaenamido)ethyl)amino)-3,5-dihydroxy-7-oxoheptyl)-3,7-dimethyl-1,2,3,7,8,8a-hexahydronaphthalen-1-yl 2,2-dimethylbutanoate]",level of PCSK9 secreted from HepG2 cells,"6.25 μM, FIG. 1",no significant change
same,level of PCSK9 secreted from HepG2 cells,"25 μM, FIG. 1",decrease
